Measurements published in patent publication US6555533B2, “Use of certain substituted caprolactams in treating tumors” (Novartis AG, priority 1998, dated 2003).
Like-named read-outs stand apart in the source and are kept apart here. Marks after values point to notes of the source that are not given here.

Legend:
PC-3 tumor xenografts = assay: PC-3 prostate carcinoma xenograft model; type: in vivo, athymic (nu/nu) mice
A549 tumor xenografts = system: A549 tumor xenografts
Text: Utilizing this model, one can measure the ability of test compounds to inhibit the growth of human tumor xenografts growing subcutaneously (s.c.) in athymic nude mice. The histologic tumor types employed were MDA-MB-435 breast, A549 non-small cell lung, HCT-116 colon and PC-3 prostate carcinomas.
A549 non-small cell lung carcinoma xenograft model: Briefly, 10 million cells were implanted s.c. into the right flank of athymic (nu/nu) mice, and were allowed to grow until a mass of approximately 120 mm^3 was established. The test compounds are administered three times per week intravenously (i.v.) for three weeks in 5% dextrose, 10%DMSO in water. The test compounds are administered in dose-response fashion in order to evaluate and document the full potential range of activity (efficacy and toxicity) for a given compound. Positive controls are carried out with mitomycin C administered 3 times per week intraperitioneally (i.p.).
Toxicity was monitored by recording average group body weights twice weekly, and by daily observation of general health. Efficacy was monitored by taking measurements of tumor length, width, and depth weekly using digital calipers coupled to automated data collectors. Mean tumor volume (MTV) at initiation of therapy was subtracted from final MTV in order to express the actual tumor growth during treatment (ΔMTV). Anti-tumor activity was expressed as %T/C (ΔMTV of treated group÷ΔMTV of control group×100). Regressions were calculated using the formula: (T/T0−1)×100%, where T is the tumor volume for the treatment group at the end of the experiment, and T0 is the tumor volume at the beginning of the experiment. Statistical significance was evaluated using a one-tailed Student's t-test (p<0.05).

PC-3 prostate carcinoma = assay: Anchorage Dependent Growth Monolayer Assay (ADGMA), PC-3; type: cell-based, human; conditions: Homo sapiens, 72 h; 3-day exposure, MTS readout; read-out: IC50 (average±S.D.) PC-3
Description: (§1) As indicated above, all of the compounds of formula I, and their corresponding pharmaceutically acceptable acid addition salts, are anti-tumor agents and are, therefore, useful in inhibiting the growth of various lymphomas, sarcomas, carcinomas, myelomas, and leukemia cell lines.
(§2) The ADGMA compares the number of viable cells following a 3-day exposure to a test compound relative to a number of cells present at the time the test compound was added. […] The absorbance at 490 nm (A490) of the formazan derivative is proportional to the number of viable cells. The IC50 for a test compound is the concentration of compound required to reduce the final cell number to 50% of the final control cell number. If cell proliferation is inhibited, the assay further defines compounds as cytostatic (cell number after 3-day compound incubation >cell number at time of compound addition) or cytotoxic (cell number after 3-day compound incubation <cell number at time of compound addition).
(§3) A549, HCT-116 and PC-3 cells were maintained in RPMI 1640 containing 5% FBS, […], 1 nM β-estradiol, 1 nM testosterone, 100 units/mL penicillin and 100 ug/mL streptomycin.
(§4) Cell lines are trypsinized and counted using a Coulter counter to determine plating densities. Cells are then plated in their respective maintenance media (100 μL/well) in 96 well plates at the following densities: MDA-MB-435, 3,000 cells/well; A549 and HCT-116, 700 cells/well; are PC-3, 2500 cells/well. The number of cells plates as determined in preliminary experiments, results in cell densities of 75-90% of confluency by 4 days after plating. Initial cell densities, assayed one day after plating, are roughly 0.15-0.20 absorbance units greater than the media blank. Ninety-six well plates are seeded on day 0 and the test compounds are added on day 1. A control plate is created for each cell line that receives media only in row A and cells in row B. One day following plating, test compounds are added (in a final volume of 100 μL) to the test plates. Control plates receive 10 μL MTS mixture (prepared fresh on day of addition to cell plates at a ratio of 10 μL of a 0.92 mg/mL solution of PMS to a 190 μL of a 2 mg/mL solution of MTS) and 100 μL media. A490 of control plates is read 4 h after MTS addition to determine initial cell density values for each cell line. Three days after addition of test compound, 10 μL/well of MTS mixture is added to the test plates and A490 is read 4 h later. A490 values for wells containing cells are corrected for media absorbance, then normalized to initial density readings to determine percent net growth. IC50 values are determined from graphs of percent net growth as a function of compound concentration. Percent net growth is calculated as (Cell+Drug A490−Initial A490/Cell+Drug Vehicle A490−Initial A490).

[1] = system: MDA-MB-435 tumor xenografts; assay: MDA-MB-435 breast carcinoma xenograft model; type: in vivo, athymic (nu/nu) mice
Description: Positive controls are carried out with doxorubicin administered 3 times per week i.v.
The following results were obtained for compounds of Ex.1-Ex.12 tested against MDA-MB-435 tumor xenografts 3×/week for 3 weeks: […]

[2] = system: MDA-MB-435 breast carcinoma; assay: Anchorage Dependent Growth Monolayer Assay (ADGMA), MDA-MB-435; type: cell-based, human; conditions: Homo sapiens, MDA-MB-435, 72 h; 3-day exposure, MTS readout; read-out: IC50 (average±S.D.) MDA-MB-435
Description: as §1, §2
The MDA-MB-435 breast carcinoma line was obtained from the American Type Culture Collection (ATCC) and used between passages 4-20 following thawing. MDA-MB-435 breast carcinoma was maintained and plated in DME/F12 medium containing 10% fetal bovine serum, 15 mM HEPES (pH=7.4), 100 units/mL penicillin, and 100 μg/mL streptomycin.
as §4

HCT-116 tumor xenografts = assay: HCT-116 colon carcinoma xenograft model; type: in vivo, athymic (nu/nu) mice
Description: Positive controls are carried out with 5-fluorouracil administered 1 time per week i.v.

[3] = system: A549 non-small cell lung carcinoma; assay: Anchorage Dependent Growth Monolayer Assay (ADGMA), A549; type: cell-based, human; conditions: Homo sapiens, A549, 72 h; 3-day exposure, MTS readout; read-out: IC50 (average±S.D.) A549
Description: as §1, §2, §3, §4

HCT-116 colon carcinoma = assay: Anchorage Dependent Growth Monolayer Assay (ADGMA), HCT-116; type: cell-based, human; conditions: Homo sapiens, HCT-116, 72 h; 3-day exposure, MTS readout; read-out: IC50 (average±S.D.) HCT-116
Description: as §1, §2, §3, §4

[4] = 10 μmol/kg i.v. 3×/week for 3 weeks
[5] = 33 μmol/kg i.v. 3×/week for 3 weeks
[6] = 100 μmol/kg i.v. 3×/week for 3 weeks
[7] = 2 mg/kg i.v. 3 times per week (positive control)

Row | SMILES | % T/C (A549 tumor xenografts; [5]) | Dead/Total (A549 tumor xenografts; [5]) | Δ MTV (A549 tumor xenografts; [5]) | Dead/Total (A549 tumor xenografts; [6]) | Δ MTV (A549 tumor xenografts; [6]) | IC50 (PC-3 prostate carcinoma) | % T/C [1, 4] | Dead/Total [1, 4] | % T/C [1, 5] | Dead/Total [1, 5] | IC50 [2] | % T/C (HCT-116 tumor xenografts; [4]) | Dead/Total (HCT-116 tumor xenografts; [4]) | Δ MTV (HCT-116 tumor xenografts; [4]) | % T/C (HCT-116 tumor xenografts; [5]) | Dead/Total (HCT-116 tumor xenografts; [5]) | Δ MTV (HCT-116 tumor xenografts; [5]) | % T/C (HCT-116 tumor xenografts; [6]) | IC50 [3] | IC50 (HCT-116 colon carcinoma) | also measured
1 | CO[C@@H](C(=O)N[C@H]1CC[C@@H](OC(=O)C2CCCCC2)CNC1=O)[C@H](O)[C@@H](O)[C@H](O)/C=C/C(C)(C)C [Ex. 1, (2R, 3R, 4S, 5R, 6E)-3,4,5-Trihydroxy-2-methoxy-8,8-dimethyl-N-[(3S, 6R)-hexahydro-2-oxo-6-(cyclohexylcarbonyl)oxy-2H-azepin-3-yl]non-6-enamide] | 38% | 0/8 | 29 mm^3 | 1/8 | 11 mm^3 | 0.039 ± 0.013 µM | 61* % | 0/8 | 24* % | 0/8 | 0.041 ± 0.026 µM | 89% | 0/8 | 360 mm^3 | 35* % | 0/8 | 142 mm^3 | 10* % | 0.078 ± 0.038 µM | 0.041 ± 0.003 µM | % T/C (PC-3 tumor xenografts; [4]): 87%; Dead/Total (PC-3 tumor xenografts; [4]): 0/7; Δ MTV (PC-3 tumor xenografts; [4]): 1931 mm^3; % T/C (PC-3 tumor xenografts; [5]): 32%; Dead/Total (PC-3 tumor xenografts; [5]): 0/8; Δ MTV (PC-3 tumor xenografts; [5]): 718 mm^3; % T/C (PC-3 tumor xenografts; [6]): 8* %; Dead/Total (PC-3 tumor xenografts; [6]): 1/8; Δ MTV (PC-3 tumor xenografts; [6]): 185 mm^3; % T/C (A549 tumor xenografts; [4]): 42%; Dead/Total (A549 tumor xenografts; [4]): 0/8; Δ MTV (A549 tumor xenografts; [4]): 32 mm^3; % T/C (A549 tumor xenografts; [6]): 14* %; % regression [1, 6]: 29 regression* %; Dead/Total [1, 6]: 0/8; Δ MTV [1, 6]: −11 mm^3; Dead/Total (HCT-116 tumor xenografts; [6]): 0/8; Δ MTV (HCT-116 tumor xenografts; [6]): 42 mm^3
2 | CO[C@@H](C(=O)N[C@H]1CC[C@@H](OC(=O)CCc2ccccc2)CNC1=O)[C@H](O)[C@@H](O)[C@H](O)/C=C/C(C)(C)C [Ex. 4, (2R, 3R, 4S, 5R, 6E)-3,4,5-Trihydroxy-2-methoxy-8,8-dimethyl-N-[(3S, 6R)-hexahydro-2-oxo-6-(1-oxo-3-phenylpropoxy)-2H-azepin-3-yl]non-6-enamide] | 17* % | 0/8 | 13 mm^3 | 1/8 | −10 mm^3 | 0.007 ± 0.004 µM | 53* % | 0/8 | 12* % | 0/8 | 0.012 ± 0.014 µM | 70* % | 0/8 | 280 mm^3 | 22* % | 0/8 | 87 mm^3 | 11* % | 0.02 ± 0.009 µM | 0.007 ± 0.003 µM | % T/C (PC-3 tumor xenografts; [4]): 77%; Dead/Total (PC-3 tumor xenografts; [4]): 0/8; Δ MTV (PC-3 tumor xenografts; [4]): 1722 mm^3; % T/C (PC-3 tumor xenografts; [5]): 29%; Dead/Total (PC-3 tumor xenografts; [5]): 0/8; Δ MTV (PC-3 tumor xenografts; [5]): 638 mm^3; % T/C (PC-3 tumor xenografts; [6]): 4* %; Dead/Total (PC-3 tumor xenografts; [6]): 0/8; Δ MTV (PC-3 tumor xenografts; [6]): 100 mm^3; % regression (A549 tumor xenografts; [6]): 22 regression* %; % regression [1, 6]: 58 regression* %; Dead/Total [1, 6]: 0/8; Δ MTV [1, 6]: −23 mm^3; Dead/Total (HCT-116 tumor xenografts; [6]): 1/8; Δ MTV (HCT-116 tumor xenografts; [6]): 44 mm^3
3 | CO[C@@H](C(=O)N[C@H]1CC[C@@H](OC(=O)CCc2cccnc2)CNC1=O)[C@H](O)[C@@H](O)[C@H](O)/C=C/C(C)(C)C [Ex. 5, (2R, 3R, 4S, 5R, 6E)-3,4,5-Trihydroxy-2-methoxy-8,8-dimethyl-N-[(3S, 6R)-hexahydro-2-oxo-6-(1-oxo-3-[3-pyridyl]propoxy)-2H-azepin-3-yl]non-6-enamide] | 46% | 0/8 | 35 mm^3 | 0/8 | 18 mm^3 | 0.348 ± 0.026 µM | 92% | 0/8 | 44* % | 0/8 |  | 93% | 0/8 | 376 mm^3 | 67* % | 0/8 | 270 mm^3 | 28* % | 1.04 ± 0.758 µM | 0.464 ± 0.142 µM | % T/C (A549 tumor xenografts; [4]): 50%; Dead/Total (A549 tumor xenografts; [4]): 0/8; Δ MTV (A549 tumor xenografts; [4]): 38 mm^3; % T/C (A549 tumor xenografts; [6]): 24* %; Dead/Total (HCT-116 tumor xenografts; [6]): 0/8; Δ MTV (HCT-116 tumor xenografts; [6]): 111 mm^3
4 | COc1cccc2c1C(=O)c1c(O)c3c(c(O)c1C2=O)C[C@@](O)(C(=O)CO)C[C@@H]3O[C@H]1C[C@H](N)[C@H](O)[C@H](C)O1 [doxorubicin, reference compound] |  |  |  |  |  | 0.327 ± 0.123 µM |  |  |  |  | 0.399 ± 0.314 µM |  |  |  |  |  |  |  | 0.504 ± 0.32 µM | 0.039 ± 0.006 µM | % T/C [1, 7]: 42* %; Dead/Total [1, 7]: 0/8
